We go through three molecules from patent EP3147364A1, “ANTIVIRAL AGENTS COMPRISING AN OLIGONUCLEOTIDE-LIPID CONJUGATE FORMING G-QUADRUPLEX” (priority 2015, dated 2017).

What is called CC50 is the concentration at which the toxic effect on the cells reaches its halfway point. The low end stands for harm at low concentration, the high end for better tolerance by the cells. Broadly, the EC50 is the midpoint of the concentration-response curve. The low end stands for an effect from little substance, the high end for a need for much substance.

Data set [1] relates to NL4.3-Ren. Nature of the data set: Transfection experiment: pNL4.3-Ren viruses produced in 293T cells in presence of drug, quantified and tested for infectivity on SupT1 cells. The data set is classed as cell-based, HIV-1. Conditions: drug added to transfected 293T cells for 24h; supernatants on SupT1 cells (Fig. 7a).
A short description of data set [2]: Cytotoxicity (viability) assay in Huh7/Scr cells (CytoTox-Glo). The data set is classed as cell-based. As to conditions: human.
The next data set has as its system Luc-Jc1 virus. In words: HCVcc infection: Luc-Jc1 virus on Huh7/Scr cells, Firefly luciferase.
Data set [3] has as its system NL4.3-Ren. The data set is classed as cell-based, HIV-1. Conditions: text does not say which of assays A and B (Figs. 4 and 5).

Take `CC(C)CN(C[C@@H](O)[C@H](Cc1ccccc1)NC(=O)O[C@H]1CCOC1)S(=O)(=O)c1ccc(N)cc1` [APV, Amprenavir]: in the data set with NL4.3-Ren [1], the “inhibition of infection by viruses produced in presence of drug” value was “inhibition of infection is detected”.
`Cc1nc(Nc2ncc(C(=O)Nc3c(C)cccc3Cl)s2)cc(N2CCN(CCO)CC2)n1` [Dasatinib] had a CC50 at 72 h in data set [2] of 20.3 µM. The EC50 with Luc-Jc1 virus (Hepatitis C virus, Huh-7, 72 h) turned out to be 1.47 µM. The same molecule displayed an SI with Luc-Jc1 virus (Selectivity Index from EC50 and CC50) of 13.81.
Consider `CCCC/C=C\C/C=C\CCCCCCCCCOCC(O)CO` (centres unmarked) [3-[(10Z,13Z)-octadeca-10,13-dien-1-yloxy]propane-1,2-diol], for which the antiviral effect result with NL4.3-Ren [3] is given as “no effect”.
